Consider two molecules from patent publication USRE43712E1, “Methods for assaying for antidepressant therapy markers” (The Board of Trustees of the Uniersity of Illinois, priority 2000, dated 2012).

Format in all cases: cell-based
One test relates to adenylyl cyclase. In words: Adenylyl cyclase activity in sucrose density gradient fractions of Triton X-100-solubilized C6-2B cells. As to conditions: 10 μM desipramine-treated C6-2B cells. Here is the method: C6-2B cells treated as described above were used to prepare Triton-insoluble, caveolin-enriched membrane fractions by the procedure of Li et al. [J. Biol. Chem., 270:15693-15701; 1995] with minor modifications. In brief, C6-2B cells were harvested into 0.75 ml of HEPES buffer (10 mM HEPES, pH 7.5, 150 mM NaCl, 1 mM DTT, 0.3 mM PMSF) containing 1% Triton X-100. Homogenization was carried out with 10 strokes of a Potter-Elvehjem homogenizer. The homogenate was adjusted to 40% sucrose by the addition of an equal volume of 80% sucrose prepared in HEPES buffer and placed at the bottom of an ultracentrifuge tube. A step gradient containing 30, 15, and 5% sucrose was formed above the homogenate and centrifuged at 50,000 rpm for 20 h in an SW65 rotor (240,000 g). Two or three opaque bands confined between the 15 and 30% sucrose layers were harvested, diluted threefold with HEPES buffer, and pelleted in a microcentrifuge at 16,000 g. The pellet was resuspended in HEPES buffer and identified as the Triton-insoluble fraction. The 40% sucrose region of the gradient was saved as the Triton-soluble fraction. In separate experiments, the same conditions were used, but instead of isolating the three opaque bands, 100-μl fractions were collected and assayed for Gs content and adenylyl cyclase activity.
Adenylyl cyclase was assayed as described previously [Rasenick et al., Brain Res., 488:105-113; 1989]. […]

In test [1] the test system is Gsα. The test is described as follows: Gsα in Triton-insoluble, caveolin-enriched versus Triton-soluble fraction of C6-2B cells (sucrose density gradient, immunoblot). As to conditions: chronic treatment, FIG. 3C. Here is the method: (§1) Rat cortex membrane, C6-2B cell membranes, or Triton extracts of each membrane preparation were subjected to SDS-PAGE followed by electrotransfer to polyvinylidene difluoride (PVDF) membrane. The PVDF membrane was incubated with a phosphate-buffered saline/Tween 20 Buffer (140 mM NaCl, […]. 0.1% Tween 20, pH 7.4) and 3% bovine serum albumin. The membrane was then incubated with polyclonal rabbit antisera against the various G protein subunits [RM (Gsα) or 116 (Gi1, Gi2, Gi3α)] at a 1:25,000 (RM) or 1:5,000 (116) dilution (see below for source of antibodies). […] Immunoreactivity was detected with an enhanced chemiluminescence (ECL) western blot detection system (Amersham) in accord with the manufacturer's instructions. The developed autoradiographs were analyzed by densitometry.
(In western blotting, separated proteins are transferred to a membrane and probed.)

For test [2], the system named is Gsα. In words: Content of G protein (Gsα) in C6-2B glioma membranes after antidepressant treatment, quantitative immunoblot. Here is the method:
C6-2B cells (between passages 20 and 40) were grown in 175-cm^2 flasks in Dulbecco's modified Eagle medium, 4.5 g of glucose/L, 10% bovine serum, in a 10% CO2 atmosphere, at 37° C. for 3 days after splitting. […] Male Sprague-Dawley rats weighing 150-200 g were fed ad libitum and maintained in a 12-h light/dark cycle. […] 36:803-838, 1989]. […] Rat cerebral cortex membranes were prepared according to the method of Rasenick et al. [Nature, 294:560-562; 1981].
as §1
Purified recombinant GsαL (long form of Gsα; 1-10 ng/lane) was subjected to SDS-PAGE and transferred to PVDF membranes. The blots were incubated with antibody against Gsα (RM) and processed by ECL. Films were analyzed on a Molecular Dynamics densitometer, and the volume of each band was quantified and used to make a standard curve.
Experiments were conducted to determine whether Gsα is quantitatively altered by antidepressant therapy. For quantification of Gsα in C6-2B membrane, a standard curve was created using purified recombinant […]. Pure Gsα (1-20 ng/well) was subjected to SDS-PAGE and transferred to a PVDF membrane, Gsα was immunodetected by antisera against the as subunit of G protein.
To estimate the effect of antidepressant treatment on the amount of Gsα in C6-2B membranes, equal amounts (10 μg) of C6-2B glioma membrane proteins in control and chronically (3 days) antidepressant-treated groups were subjected to SDS-PAGE. Gsα was immunodetected by antisera against the αs subunit of G protein.

Setting [3] is: C6-2B membranes, 10 μM drug for 3 days, mean ± SEM of 4-5 experiments.

For the molecule `CNCCCN1c2ccccc2CCc2ccccc21` [Desipramine, desipramine], in the test with adenylyl cyclase (gradient fractions), the “Basal adenylyl cyclase activity” value is given as “unchanged”. Further, the “Forskolin-stimulated adenylyl cyclase activity compared with control” value with adenylyl cyclase (gradient fractions 11 and 12, 10^−4 M forskolin) is “almost a twofold increase”. Also, the “Decrease of the amount of Gsα in the caveolin-enriched Triton-insoluble fraction, normalized to equal caveolin” value with Gsα [1] is listed as approximately 50%.

Regarding `CNCCC(Oc1ccc(C(F)(F)F)cc1)c1ccccc1` (stereo not shown) [Fluoxetine, fluoxetine], the “Quantity of G proteins in membrane, treated versus control” value in the test on Gsα [2] (C6-2B cells, 10 μM, 3 days, p>0.05) is on record as “no significant differences”. In addition, in the test on Gsα [2] (setting [3]), the “G protein amount, Total” value is listed as 12.49 ± 0.67 ng/10 ug of membrane protein; the “G protein amount, αsL” value is reported as 7.23 ± 0.56 ng/10 ug of membrane protein; the “G protein amount, αsS” value is reported as 5.65 ± 0.74 ng/10 ug of membrane protein.
